The source of these data is ChEMBL document CHEMBL4616670, “Phosphine Oxides from a Medicinal Chemist's Perspective: Physicochemical and in Vitro Parameters Relevant for Drug Discovery” (J Med Chem, 2020).

Values after ≈ are worked out from the molar mass of the structure shown. A value given as a limit tells only on which side of the number the result lay.

Data set [1] in a line: in vitro. The settings on record: human, liver microsomes.
Description: Stability in human liver microsomes at 1 uM incubated prior to NADPH addition by LC-MS/MS analysis relative to hepatic blood flow
Data set [2] in a line: physchem. The note with it: pH 6.8 buffer.
Data set [3] in a line: physchem. The note with it: octanol/water, pH 11.
Description: Octanol/water partition coefficient, log D of the compound at pH 11
A short description of data set [4]: in vitro. The note with it: human, Caco-2.
Description: Permeability across apical to basolateral side in human Caco2 cells measured up to 2 hrs by LC-MS/MS analysis or scintillation counting method
The nature of data set [5]: in vitro. The settings on record: human, liver microsomes. This is another data set of the same source. (In general: Liver microsomes are vesicles of endoplasmic reticulum, rich in cytochrome P450 enzymes.)
Description: Half life in human liver microsomes at 1 uM incubated prior to NADPH addition by LC-MS/MS analysis
A short description of data set [6]: in vitro. The note with it: human, Caco-2. The source holds these as a separate data set.
Description: Efflux ratio of permeability in human Caco2 cells measured up to 2 hrs by LC-MS/MS analysis or scintillation counting method
Data set [7] in a line: physchem. The settings on record: octanol/water, pH 2.
Description: Octanol/water partition coefficient, log D of the compound at pH 2
Data set [8] can be described thus: physchem. The note with it: pH 6.8 buffer. This is another data set of the same source.
Data set [9] can be described thus: physchem. The settings on record: MeOH/HCl solution.
Description: Chemical stability of the compound in MeOH/HCl solution at pH <1 assessed as compound decomposition measured after 7 days by UV-RP-HPLC analysis
For data set [10] the following is noted: 168 h.
Description: Chemical stability of the compound in MeOH/NH3 solution at pH >10 assessed as compound decomposition measured after 7 days by UV-RP-HPLC analysis

For `Cc1ccc(NC(=O)c2ccc(C(N)=O)cc2)cc1Nc1nccc(-c2cccnc2)n1`, the hepatic extraction ratio at 1 µM in “in vitro [1]” stood at 0.25. The solubility (thermodynamic) at 24 h in “physchem [2]” is under 0.001 mg/mL. The logD is 1.5 in “physchem [3]” and 0.4 in the data set “physchem [7]”. In the data set “in vitro [4]”, this compound registered an apparent permeability from apical to basolateral (Papp A→B) at 2 h of 30 nm/s. The compound also yielded a half-life at 1 µM in “in vitro [5]” of 1.95 h. Moreover, the efflux ratio at 2 h in “in vitro [6]” came to 8.1.
Consider `CCOP(=O)(OCC)c1ccncc1`, for which the hepatic extraction ratio at 1 µM in “in vitro [1]” was under 0.23. In addition, the solubility (thermodynamic) at 24 h in “physchem [8]” is 29.5 mg/mL (≈ 137 mM); in the data set “physchem [2]”, over 0.05 mg/mL. Further, the results for the pH-dependent lipophilicity (logD) in “physchem [3]” and in the data set “physchem [7]” were 0.2 and 0, respectively. The Papp A→B at 2 h in the data set “in vitro [4]” amounted to 660 nm/s. In the data set “in vitro [5]”, the half-life at 1 µM was over 2.17 h. The efflux ratio at 2 h in “in vitro [6]” turned out to be 0.7.
On to `O=P1(c2ccc(C(F)(F)F)cc2)CCCCC1`, for which the hepatic extraction ratio at 1 µM in “in vitro [1]” is under 0.23. In addition, the results for the thermodynamic solubility at 24 h in “physchem [8]” and in “physchem [2]” were 7.7 mg/mL (≈ 29.4 mM) and over 0.066 mg/mL, respectively. Also, in “physchem [9]”, the degraded at 168 h was under 10%. The compound further yielded a Drug degradation in [10] of under 10%. For the same compound, the logD came to 2 in “physchem [3]” and 2.4 in the data set “physchem [7]”. Moreover, the Papp A→B at 2 h in “in vitro [4]” stood at 490 nm/s. The compound also showed a half-life at 1 µM in the data set “in vitro [5]” of over 2.17 h. Besides, in the data set “in vitro [6]”, the efflux ratio at 2 h was found to be 1.1.
As to `COC(=O)c1ccc(C(F)(F)F)cc1`, the solubility (thermodynamic) at 24 h in “physchem [8]” is 0.02 mg/mL (≈ 0.098 mM); in the data set “physchem [2]” it was under 0.001 mg/mL.
For `CCOP(C)(=O)c1ccncc1` (stereo not drawn), the hepatic extraction ratio at 1 µM in “in vitro [1]” was under 0.23. In addition, the thermodynamic solubility at 24 h is over 30 mg/mL in “physchem [8]” and over 0.045 mg/mL in “physchem [2]”. Further, the logD in “physchem [3]” was -0.7; in the data set “physchem [7]”, -1.1. This compound also registered a Papp A→B at 2 h in the data set “in vitro [4]” of 540 nm/s. In addition, in “in vitro [5]”, the half-life at 1 µM was over 2.17 h. In the data set “in vitro [6]”, the efflux ratio at 2 h stood at 0.6.
`CCP(=O)(CC)c1ccc(C(F)(F)F)cc1`: the hepatic extraction ratio at 1 µM in the data set “in vitro [1]” was under 0.23. Moreover, the thermodynamic solubility at 24 h is 22.5 mg/mL (≈ 89.9 mM) in “physchem [8]” and over 0.06 mg/mL in the data set “physchem [2]”. In the data set “physchem [9]”, the degraded at 168 h was under 10%. For the same compound, the Drug degradation in data set [10] is given as under 10%. For the same compound, the logD in “physchem [3]” came to 2; in “physchem [7]”, 2.3. In the data set “in vitro [4]”, this compound showed an apparent permeability from apical to basolateral (Papp A→B) at 2 h of 880 nm/s. In the data set “in vitro [5]”, this compound had a half-life at 1 µM of over 2.17 h. For the same compound, the efflux ratio at 2 h in “in vitro [6]” was found to be 0.7.
In the case of `CCOP(C)(=O)c1ccc(C(=O)Nc2ccc(C)c(Nc3nccc(-c4cccnc4)n3)c2)cc1` (stereo not drawn), the hepatic extraction ratio at 1 µM in the data set “in vitro [1]” was 0.45. Also, the thermodynamic solubility at 24 h in “physchem [2]” amounted to 0.051 mg/mL (≈ 0.105 mM). The logD is 2.2 in the data set “physchem [3]” and 0.9 in the data set “physchem [7]”. Also, in the data set “in vitro [4]”, the Papp A→B at 2 h was 50 nm/s. The compound also came in with a half-life at 1 µM in “in vitro [5]” of 0.8 h. The efflux ratio at 2 h in the data set “in vitro [6]” was determined as 9.9.
Regarding `O=P1(c2ccc(C(F)(F)F)cc2)CCOCC1`, the hepatic extraction ratio at 1 µM in the data set “in vitro [1]” was under 0.23. Further, the figures for the solubility (thermodynamic) at 24 h in “physchem [8]” and in the data set “physchem [2]” were over 30 mg/mL and over 0.065 mg/mL, respectively. The degraded at 168 h in “physchem [9]” is under 10%. This compound also yielded a Drug degradation in data set [10] of under 10%. Also, the logD was 1.1 in “physchem [3]” and 1.4 in “physchem [7]”. In the data set “in vitro [4]”, this compound had a Papp A→B at 2 h of 650 nm/s. The same compound gave a half-life at 1 µM in the data set “in vitro [5]” of over 2.17 h. Moreover, the efflux ratio at 2 h in the data set “in vitro [6]” amounted to 0.7.
As to `O=P1(c2ccc(C(F)(F)F)cc2)CCCC1`, the hepatic extraction ratio at 1 µM in the data set “in vitro [1]” was under 0.23. The thermodynamic solubility at 24 h in “physchem [8]” is 24.5 mg/mL (≈ 98.7 mM); in “physchem [2]”, over 0.059 mg/mL. The degraded at 168 h in “physchem [9]” is under 10%. Moreover, the Drug degradation in [10] is under 10%. Also, the logD in “physchem [3]” was 1.7; in the data set “physchem [7]”, 2. Moreover, the Papp A→B at 2 h in the data set “in vitro [4]” came to 690 nm/s. This compound had a half-life at 1 µM in “in vitro [5]” of over 2.17 h. In addition, the efflux ratio at 2 h in “in vitro [6]” is 0.7.
As for `O=P1(c2ccc(C(F)(F)F)cc2)CCC1`, the hepatic extraction ratio at 1 µM in the data set “in vitro [1]” was under 0.23. Moreover, the thermodynamic solubility at 24 h in “physchem [8]” is 24.5 mg/mL (≈ 105 mM); in “physchem [2]”, over 0.053 mg/mL. In “physchem [9]”, this compound registered a degraded at 168 h of under 10%. In data set [10], the Drug degradation is recorded as under 10%. For the same compound, the logD was 1.6 in the data set “physchem [3]” and 1.8 in the data set “physchem [7]”. Further, the Papp A→B at 2 h in the data set “in vitro [4]” came to 780 nm/s. The compound also showed a half-life at 1 µM in “in vitro [5]” of over 2.17 h. The efflux ratio at 2 h in “in vitro [6]” was 0.8.
`CC(C)P(=O)(c1ccc(C(F)(F)F)cc1)C(C)C`: in the data set “in vitro [1]”, the hepatic extraction ratio at 1 µM is under 0.23. Also, the thermodynamic solubility at 24 h in “physchem [8]” is 22.2 mg/mL (≈ 79.8 mM); in “physchem [2]”, over 0.061 mg/mL. Further, the degraded at 168 h in “physchem [9]” is under 10%. In addition, the Drug degradation in data set [10] is under 10%. For the same compound, the pH-dependent lipophilicity (logD) stood at 2.8 in “physchem [3]” and 3.1 in the data set “physchem [7]”. The same compound yielded a Papp A→B at 2 h in the data set “in vitro [4]” of 1100 nm/s. The same compound registered a half-life at 1 µM in “in vitro [5]” of over 2.17 h. Besides, in “in vitro [6]”, the efflux ratio at 2 h amounted to 0.5.
For the compound `Cc1ccc(NC(=O)c2ccc(C(=O)N(C)C)cc2)cc1Nc1nccc(-c2cccnc2)n1`, the hepatic extraction ratio at 1 µM in “in vitro [1]” turned out to be 0.37. This compound registered a solubility (thermodynamic) at 24 h in “physchem [2]” of under 0.001 mg/mL. For the same compound, the log distribution coefficient (logD) in “physchem [3]” came out at 2; in “physchem [7]”, 0.7. Also, the Papp A→B at 2 h in “in vitro [4]” turned out to be 190 nm/s. Moreover, in the data set “in vitro [5]”, the half-life at 1 µM worked out at 1.12 h. Moreover, in the data set “in vitro [6]”, the efflux ratio at 2 h was determined as 2.2.
With `CP(C)(=O)c1ccc(C(F)(F)F)cc1`, the hepatic extraction ratio at 1 µM in the data set “in vitro [1]” is under 0.23. In addition, the solubility (thermodynamic) at 24 h was over 30 mg/mL in “physchem [8]” and over 0.052 mg/mL in the data set “physchem [2]”. The compound also had a degraded at 168 h in the data set “physchem [9]” of under 10%. In addition, in [10], the Drug degradation is under 10%. Also, the logD was 1.1 in the data set “physchem [3]” and 1.5 in “physchem [7]”. Further, the Papp A→B at 2 h in the data set “in vitro [4]” was determined as 820 nm/s. In addition, the half-life at 1 µM in the data set “in vitro [5]” is over 2.17 h. Further, in “in vitro [6]”, the efflux ratio at 2 h is 0.5.
`CCOP(C)(=O)c1ccc(C(F)(F)F)cc1` (stereo not drawn): the hepatic extraction ratio at 1 µM in “in vitro [1]” is under 0.23. Also, the pH-dependent lipophilicity (logD) in the data set “physchem [3]” is 2.3; in “physchem [7]” it was 2.5. In addition, the apical-to-basolateral permeability (Papp A→B) at 2 h in the data set “in vitro [4]” was 690 nm/s. In “in vitro [5]”, the half-life at 1 µM is over 2.17 h. Also, the efflux ratio at 2 h in the data set “in vitro [6]” came to 1.
Regarding `CCP(=O)(CC)c1ccncc1`, the hepatic extraction ratio at 1 µM in “in vitro [1]” is under 0.23. Further, the solubility (thermodynamic) at 24 h in “physchem [8]” is 11.6 mg/mL (≈ 63.3 mM); in the data set “physchem [2]”, over 0.046 mg/mL. Moreover, the logD was -1 in “physchem [3]” and under -1.8 in the data set “physchem [7]”. Moreover, the Papp A→B at 2 h in “in vitro [4]” is 190 nm/s. In the data set “in vitro [5]”, the half-life at 1 µM is over 2.17 h. In the data set “in vitro [6]”, the efflux ratio at 2 h amounted to 0.6.

As a reminder, the thermodynamic solubility is solubility found after equilibrating the solid with the medium. Broadly, the logD is lipophilicity at a set pH, counting ionised and neutral species. Higher therefore signals a more lipophilic compound. One may read the Papp A→B as how fast a substance crosses the layer from the apical side. As a reminder, the half-life is how long it takes for the measured level to halve. In general, efflux ratio refers to a quotient of directional permeabilities that is used to spot active efflux.
